In BindingDB's records for doi:10.1016/S0960-894X(97)00241-2 (1997):

Target: Nitric oxide synthase, brain (Bos taurus)
Test: Inhibition against neuronal nitric oxide synthase (nNOS) from bovine brain was determined

Ki: 12 mM
SMILES: C#CCNC(=N)N [amino(prop-2-ynylamino)methaniminium]
